Results as given in US12486229B2, “Indole derivative and application thereof” (SHANGHAI MEDICILON INC., priority 2020, dated 2025).

Tested on: DSS induced ulcerative colitis in mice
Test: DSS induced ulcerative colitis in mice
Format: in vivo
Parameters: key to Total stool scores: sum of shape (1-3) and bleeding (1-3) levels; normal = 1 each; Colon length: unit not given here
Conditions: for Colon length / Colon weight / Effect on blood stool and loose stool compared with model group: day 9; for Colon weight compared with model group: P<0.05
Experimental: Molecular weight of DSS dextran sodium sulfate: 36,000 to 50,000, From MP Biomedical Company.
Preparation of molding agent: preparation of 3.5% DSS: 49 g DSS plus 1,400 mL high-temperature sterilized water.
Source of SPF male C57BL/6 mice: Beijing Weitong Lihua Experimental Animal Technology Co., Ltd. • Animal age at the beginning of the experiment: 6 to 8 weeks; • Animal weight at the beginning of the experiment: 22 to 25 g; • Adaptation time: 3 to 5 days;
The mice were divided into groups according to their weight, 10 mice in each group. The mice were administrated once a day by gavage (or blank) according to the following Table 4.
Animals were given 3.5% DSS solution for free drinking water modeling (the day of modeling was recorded as day 1), and the modeling agent was replaced once every two days for 7 consecutive days, and then (day 8) 3.5% DSS was replaced with ordinary drinking water for another 1 day.
• Preparation of solvent 1: 0.66 mL DMSO, 1.32 mL Solutol and 11.22 mL Saline were mixed to prepare 13.2 mL of solvent 1; • Preparation of solvent 2: 0.3 mL DMSO, 0.6 mL Solutol and 5.1 mL Saline were mixed to prepare 6 mL of solvent 2; • Preparation of solution of compound of Example 3: 39.6 mg of compound of Example 3 was dissolved in 13.2 mL of solvent 1 to obtain the solution of compound 1 of Example 3, the solution 1 of compound of Example 3 was diluted with solvent 1 to prepare the solution of compound of Example 3 with concentrations of 2 mg/mL, 1 mg/mL, and 0.6 mg/mL; • Etrasimod solution: 6 mg of Etrasimod was dissolve in 6 mL of solvent 2 to obtain Etrasimod solution; • Ozanimod solution: 12 mg of […] was dissolved in 6 mL solvent 2 to obtain Ozanimod solution; • Note: Prepare once every two days, and store in refrigerator at 4° C.
Wherein, the purity of compound of Example 3 was 99.74%, Ozanimod and Etrasimod were prepared by the method described in Example 8, and the purities were 99.78% and 98.47% respectively.
The mouse stool was observed on its shape, bleeding condition every two days, and scored. Scoring criteria for stool condition: shape: normal (level 1), soft stool (level 2), and loose stool (level 3); traits: normal (level 1), faint redness (level 2), and bloody stool visible to the unaided eye (level 3).
After the last administration (8 consecutive days), the animals were dissected on the next day (day 9), the colon was separated, the whole colon was photographed, and the colon length was measured. Then the colon was cut longitudinally along the mesenteric side to remove the contents, which was weighed and observed on the integrity of the colonic mucosa. The colon was then fixed in 10% formalin.

[1] = 6 mg/kg oral gavage once a day for 8 days
[2] = 10 mg/kg oral gavage once a day for 8 days
[3] = 20 mg/kg oral gavage once a day for 8 days
[4] = 30 mg/kg oral gavage once a day for 8 days
[5] = Day 1, 10 mg/kg oral gavage once a day
[6] = Day 2, 10 mg/kg oral gavage once a day
[7] = Day 3, 10 mg/kg oral gavage once a day
[8] = Day 4, 10 mg/kg oral gavage once a day
[9] = Day 5, 10 mg/kg oral gavage once a day
[10] = Day 6, 10 mg/kg oral gavage once a day
[11] = Day 7, 6 mg/kg oral gavage once a day
[12] = Day 7, 10 mg/kg oral gavage once a day
[13] = Day 7, 20 mg/kg oral gavage once a day
[14] = Day 7, 30 mg/kg oral gavage once a day
[15] = Day 8, 6 mg/kg oral gavage once a day
[16] = Day 8, 10 mg/kg oral gavage once a day
[17] = Day 8, 20 mg/kg oral gavage once a day
[18] = Day 8, 30 mg/kg oral gavage once a day
[19] = Day 9, 6 mg/kg oral gavage once a day
[20] = Day 9, 10 mg/kg oral gavage once a day
[21] = Day 9, 20 mg/kg oral gavage once a day
[22] = Day 9, 30 mg/kg oral gavage once a day

Structure (SMILES): O=C(O)CCn1ccc2cc(OCc3ccc(C4CCCC4)c(C(F)(F)F)c3)cc(Cl)c21 [Compound of Example 3, 3-(7-chlorine-5-((4-cyclopentyl-3-(trifluoromethyl)benzyl)oxy)-1H-indole-1-yl)propionic acid]
- Colon length [1]: 39.061 ± 1.17
- Colon weight [1]: 0.164 ± 0.01 g
- Colon weight compared with model group (6 mg/kg): statistically significant difference compared with that of the model group
- Effect on blood stool and loose stool compared with model group (6 mg/kg): significantly improving blood stool and loose stool
- Colon length [2]: 39.638 ± 0.76
- Colon weight [2]: 0.164 ± 0.01 g
- Colon weight compared with model group (10 mg/kg): statistically significant difference compared with that of the model group
- Effect on blood stool and loose stool compared with model group (10 mg/kg): significantly improving blood stool and loose stool
- Colon length compared with model group (20 mg/kg): longer than that of the model group
- Colon length [3]: 44.892 ± 1.83
- Colon weight [3]: 0.163 ± 0.01 g
- Colon weight compared with model group (20 mg/kg): statistically significant difference compared with that of the model group
- Effect on blood stool and loose stool compared with model group (20 mg/kg): significantly improving blood stool and loose stool
- Colon length compared with model group (30 mg/kg): longer than that of the model group
- Colon length [4]: 41.311 ± 1.25
- Colon weight [4]: 0.162 ± 0.01 g
- Effect on blood stool and loose stool compared with model group (30 mg/kg): significantly improving blood stool and loose stool
- Weight (Day 1, 6 mg/kg oral gavage once a day): 21.3 ± 0.26 g
- Weight [5]: 21.9 ± 0.2 g
- Weight (Day 1, 20 mg/kg oral gavage once a day): 21.2 ± 0.34 g
- Weight (Day 1, 30 mg/kg oral gavage once a day): 21.5 ± 0.17 g
- Weight (Day 2, 6 mg/kg oral gavage once a day): 21.5 ± 0.27 g
- Weight [6]: 22.1 ± 0.2 g
- Weight (Day 2, 20 mg/kg oral gavage once a day): 21.7 ± 0.29 g
- Weight (Day 2, 30 mg/kg oral gavage once a day): 21.9 ± 0.17 g
- Weight (Day 3, 6 mg/kg oral gavage once a day): 21.1 ± 0.3 g
- Weight [7]: 21.4 ± 0.32 g
- Weight (Day 3, 20 mg/kg oral gavage once a day): 21.5 ± 0.33 g
- Weight (Day 3, 30 mg/kg oral gavage once a day): 21.4 ± 0.34 g
- Weight (Day 4, 6 mg/kg oral gavage once a day): 20.9 ± 0.47 g
- Weight [8]: 21.3 ± 0.46 g
- Weight (Day 4, 20 mg/kg oral gavage once a day): 21.8 ± 0.34 g
- Weight (Day 4, 30 mg/kg oral gavage once a day): 21.1 ± 0.4 g
- Weight (Day 5, 6 mg/kg oral gavage once a day): 21.1 ± 0.25 g
- Weight [9]: 21.0 ± 0.6 g
- Weight (Day 5, 20 mg/kg oral gavage once a day): 21.5 ± 0.33 g
- Weight (Day 5, 30 mg/kg oral gavage once a day): 21.1 ± 0.39 g
- Weight (Day 6, 6 mg/kg oral gavage once a day): 20.5 ± 0.25 g
- Weight [10]: 20.4 ± 0.45 g
- Weight (Day 6, 20 mg/kg oral gavage once a day): 20.3 ± 0.48 g
- Weight (Day 6, 30 mg/kg oral gavage once a day): 20.1 ± 0.58 g
- Total stool scores [11]: 5.6 ± 0.17
- Weight [11]: 19.2 ± 0.23 g
- Total stool scores [12]: 5.7 ± 0.22
- Weight [12]: 19 ± 0.46 g
- Total stool scores [13]: 5.7 ± 0.21
- Weight [13]: 19 ± 0.46 g
- Total stool scores [14]: 5.4 ± 0.32
- Weight [14]: 19.5 ± 0.52 g
- Total stool scores [15]: 5.9 ± 0.11
- Weight [15]: 18.1 ± 0.38 g
- Total stool scores [16]: 5.7 ± 0.22
- Weight [16]: 17.8 ± 0.4 g
- Total stool scores [17]: 5.9 ± 0.11
- Weight [17]: 17.4 ± 0.58 g
- Total stool scores [18]: 5.6 ± 0.23
- Weight [18]: 18.4 ± 0.51 g
- Total stool scores [19]: 4.6 ± 0
- Weight [19]: 16.3 ± 0.33 g
- Total stool scores [20]: 4.8 ± 0.26
- Weight [20]: 16.2 ± 0.3 g
- Total stool scores [21]: 4.8 ± 0.31
- Weight [21]: 16.5 ± 0.4 g
- Total stool scores [22]: 4.6 ± 0.39
- Weight [22]: 17.2 ± 0.48 g
- Effect on colon atrophy (oral gavage for 8 consecutive days, 6-30 mg/kg): certain inhibitory effect on colon atrophy

Structure (SMILES): O=C(O)C[C@H]1CCc2c1[nH]c1ccc(OCc3ccc(C4CCCC4)c(C(F)(F)F)c3)cc21 [Etrasimod, reference compound]
- Colon weight [2]: 0.169 ± 0.01 g
- Colon weight compared with model group (10 mg/kg): statistically significant difference compared with that of the model group
- Effect on blood stool and loose stool compared with model group (10 mg/kg): had not significant improvement
- Weight [5]: 21.0 ± 0.26 g
- Weight [6]: 21.6 ± 0.24 g
- Weight [7]: 21.4 ± 0.25 g
- Weight [8]: 21.7 ± 0.29 g
- Weight [9]: 21.2 ± 0.27 g
- Weight [10]: 20.5 ± 0.22 g
- Total stool scores [12]: 6.0 ± 0
- Weight [12]: 19.2 ± 0.26 g
- Total stool scores [16]: 5.9 ± 0.11
- Weight [16]: 18.0 ± 0.3 g
- Total stool scores [20]: 5.6 ± 0
- Weight [20]: 16.6 ± 0.26 g
